Measured values: patent US9429582B2, “Tyrosine-phosphorylated WBP2, a novel cancer target and biomarker” (National University of Singapore, priority 2010, dated 2016)

Tested on: WBP2-Y192-231E mutant-expressing MCF7
Experiment: Cell proliferation (MTS / cell numbers) of WBP2-Y192-231E mutant-expressing MCF7
Type: cell-based, human
Protocol: A: Whole cell lysates from vector, WBP2-WT, WBP2-Y192-231E mutant and WBP2-Y192-231F mutant expressing MCF7 or Y192-231E mutant expressing MCF7 with WBP2 knockdown were used for IB analysis with antibodies indicated. B: Vector, WBP2-WT, WBP2-Y192-231E mutant or WBP2-Y192-231F mutant-expressing MCF7 were co-transfected with TOPFlash (top panel) or ERE-Luciferase (bottom panel) reporter construct. For cells co-transfected ERE-luciferase, they were either left alone or stimulated with 50 ng/ml Wnt3a ligand for 16 hrs. TCF/ERα luciferase activities in various conditions were then assayed. **P<0.01, ***P<0.001, Student's t-test (2-tailed). C: Vector or WBP2-Y192-231E mutant-expressing MCF7 were treated with indicated concentrations of Tamoxifen(Tam) and/or FH535. Cell numbers were measured. D: Whole cell lysates from WBP2-Y192-231E mutant-expressing MCF7 treated with 2 μM Tam and/or 15 μM FH5353 were harvested at day 2-4 post-treatment and used for IB analysis with antibodies indicated.
Effect of knockdown of E2F1 and E2F3 on MCF7 cells overexpressing WBP2-Y192-231E. A. MCF7 cells expressing WBP2-Y192-231E were transfected with indicated siRNAs and knockdown efficiency was confirmed using western blotting. B. Cells were co-transfected with indicated siRNAs and E2F reporter plasmid and harvested for luciferase assay after 48 hours. Luciferase readings were normalized against constitutive TK promoter renilla luciferase readings. C. Cells were transfected with indicated siRNAs and BrdU incorporation assay was performed. Percentages of BrdU positive cells relative to control siRNA treated cells were plotted as bar charts. D. Cells were transfected with indicated siRNAs. MTS assay was performed on day 3. Percentages of cell proliferation relative to control siRNA treated cells were plotted as bar charts.
Whole cell lysates from vector, WBP2-WT, WBP2-Y192-231E mutant and WBP2-Y192-231F mutant expressing MCF7 (A) or Y192-231E mutant expressing MCF7 with WBP2 knockdown (B) were used for IB analysis with antibodies indicated. Their expression levels were quantified in three independent experiments and the averages were presented relative to actin. Representative blots (order in lanes from left to right: vector, WBP2, Y192-231E, Y192F) were presented as insets to the bar graphs. **P<0.01, ***P<0.001, Student's t-test (2-tailed) relative to vector. Vector, WBP2-WT, WBP2-Y192-231E mutant or WBP2-Y192-231F mutant-expressing MCF7 were cotransfected with TOPFlash(C) or ERE-Luciferase(D) reporter construct. For cells co-transfected ERE luciferase, they were either left alone or stimulated with 50 ng/ml Wnt3a ligand for 16 hrs. TCF(C)/ER[…](D) luciferase activities in various conditions were then assayed and analyzed in relative to untreated vector control. **P<0.01, ***P<0.001, Student's t-test (2-tailed). E: Vector or WBP2-Y192-231E mutant-expressing MCF7 were treated with indicated concentrations of 2 µM tamoxifen (Tam) and/or 15 µM FH535 for 4 days. Cell numbers were measured daily and compared in relative to vehicle treated vector-expressing cells on Day 0. F: Vector or WBP2-Y192-231E mutant-expressing MCF7 were treated with indicated concentrations (0-50 µM) of FH535 for 2 days. Cell numbers were measured and compared in relative to vehicle-treated cells. Their […] were analyzed statistically with SPSS 13.0. G: Whole cell lysates from WBP2-Y192-231E mutant-expressing MCF7 treated with 2 μM Tam and/or 15 μM FH5353 were harvested at day 2-4 post-treatment and used for IB analysis with antibodies indicated. H: Vector or WBP2-Y192-231E mutant-expressing MCF7 were treated with indicated concentrations of 100 nM fulvestrant and/or 15 µM FH535 for 4 days. Cell numbers were measured on day 2 and day 4 and compared in relative to vehicle-treated control at each day (Top Panel). These treated cells were harvested for IB analysis with antibodies indicated (Bottom Panel). […]

Compound: Cc1cc([N+](=O)[O-])ccc1NS(=O)(=O)c1cc(Cl)ccc1Cl [FH535]
- blocking of phospho-WBP2-mediated cancer cell growth compared with tamoxifen and fulvestrant: more pronouncedly
- sensitivity of Y192-231E-expressing MCF7 to FH535-mediated growth inhibition compared with vector-expressing MCF7 (0-50 μM FH535 for 2 days): more sensitive
- inhibition of growth / reduction of proliferation (MCF7 cells expressing Y192-231E mutant, day 4, 100 nM fulvestrant or 15 μM FH535): ~65%
- growth inhibition, dose dependence (Y192-231E stable transfectant, 0-50 μM FH535 for 2 days): dose dependent growth inhibition
- growth rate (Y192-231E-expressing MCF7, FH535 alone (15 μM), to close to vector-expressing MCF7 at day 3): significantly reduced
